Measured values published in patent US20240408119A1, “DELIVERY OF THERAPEUTIC ALKALOID COMPOUNDS” (priority 2022, published 2024).
Where two headings read alike, the source gives them in different places. Marks after values point to notes of the source that are not given here.

Key:
[1] = Metabolic Stability in Human Hepatocytes; format: in vitro ADME; conditions: cryopreserved human hepatocytes, 37° C.
Description: A 2.5 uL aliquot of 100 μM test compound was incubated with 247.5 uL of cryopreserved hepatocytes suspended in serum-free incubation medium at 5×10^5 viable cells/mL. The mixture was incubated at 37° C. and shaken at 500 rpm for the designated time points (0.5, 15, 30, 60, 90, or 120 min). At each time point, 25 μL aliquot of incubation mixture was transferred to 125 μL of cold acetonitrile containing internal standard, followed by centrifugation for 30 min at 3,220 g. 100 μL of supernatant was mixed with 100 μL of distilled water for analysis by LC-MS/MS. Peak areas were determined from extracted ion chromatograms and in vitro half-life (t1/2) was determined from the concentration vs time regression slope, in vitro t1/2=0.693/k. Conversion of the in vitro t1/2 (in min) into the in vitro intrinsic clearance (in vitro CLint, in μL/min/10^6 cells) is done using: in vitro CLint=kV/N.

[2] = Plasma Stability Assay (Example A3), rat plasma; format: in vitro ADME; conditions: 10 μM, 37° C.; for Rat Plasma Prodrug (%): prodrug remaining; for Rat Plasma Metabolite (%): metabolite (mesembrine, 001) accumulated
Text: (§1) The data is represented in the table below.

[3] = Plasma Stability Assay (Example A3), human plasma; format: in vitro ADME; conditions: 10 μM, 37° C.; for Human Plasma Prodrug (%): prodrug remaining; for Human Plasma Metabolite (%): metabolite (mesembrine, 001) accumulated
Text: as §1

[4] = format: in vitro ADME, mouse; conditions: 5 μM, 37° C.; for Mouse Plasma Metabolite (%): metabolite (mesembrine) accumulated; for Mouse Plasma Prodrug (%): prodrug remaining
Description: (§2) Each test was carried out in duplicate for each time point; 0 min, 15 min, 30 min, 60 min, 120, 240 min. […]

in vivo = format: in vivo, mouse; conditions: for half-life / C0 / clearance / Vd: iv, 2 mg/kg; for C0: back extrapolated; for Vd: read-out: Vss
Description: Total fifteen male mice were used in this study with n=3 mice/time point with sparse sampling study design. Animals were administered through intravenous route with solution formulation of 321 at 2 mg/kg dose.
The extraction procedure for plasma/brain samples and the spiked plasma/brain calibration standards were identical (PMSF Stabilized Plasma and Brain used for Preparation of calibration standards): A 20 μL of study sample plasma/brain or spiked plasma/brain calibration standard was added to individual pre-labeled micro-centrifuge tubes followed by 200 μL of internal standard prepared in acetonitrile (Rosuvastatin, 50 ng/mL) was added except for blank, where 200 μL of acetonitrile was added. Samples were vortexed for 5 minutes. Samples were centrifuged for 10 minutes at a speed of 4000 rpm at 4° C. Following centrifugation, 200 μL of clear supernatant was transferred in 96 well plates and analyzed using LC-MS/MS.
Brain samples were diluted (1-part of tissue: 2-part of buffer) and homogenized. The homogenate was submitted for bioanalysis and the concentrations (ng/mL) received were corrected with dilution factor (3×) and the final reported concentrations were represented in ng/g.
The plasma and brain concentration-time data of 321 and 001 were used for the pharmacokinetic analysis.
LLOQ: 321: 1.02 ng/mL for plasma and brain 001: 1.01 ng/mL for plasma and brain

[5] = format: in vitro ADME, human; conditions: 5 μM, 37° C.; for Human Plasma Metabolite (%): metabolite (mesembrine) accumulated; for Human Plasma Prodrug (%): prodrug remaining
Description: as §2

[6] = 321 after 321 IV 2 mg/kg, 0.08 h
[7] = 321 after 321 IV 2 mg/kg, 0.25 h
[8] = 321 after 321 IV 2 mg/kg, 0.5 h
[9] = male, C57BL/6, mouse, in vivo, 321 in brain after 321 IV 2 mg/kg
[10] = male, C57BL/6, mouse, in vivo, 321 in plasma after 321 IV 2 mg/kg

COc1ccc([C@@]23CCC(OP4(=O)OC(C)CC(C)O4)=C[C@@H]2N(C)CC3)cc1OC (stereo partly drawn) [Compound 423, 2-(((3aS,7aS)-3a-(3,4-dimethoxyphenyl)-1-methyl-2,3,3a, 4,5,7a-hexahydro-1H-indol-6-yl)oxy)-4,6-dimethyl-1,3,2-dioxaphosphinane 2-oxide]
half-life at 1 μM [1]: 57 min
hepatocyte CLint at 1 μM [1]: 24.4 µL/min/1e6 cells
Rat Plasma Prodrug (%) ([2]; 0 min): 100.00%
Rat Plasma Prodrug (%) ([2]; 10 min): >99%
Rat Plasma Prodrug (%) ([2]; 30 min): >99%
Rat Plasma Prodrug (%) ([2]; 60 min): 91.05%
Rat Plasma Prodrug (%) ([2]; 120 min): 83.29%
Rat Plasma Prodrug (%) ([2]; 240 min): 67.32%
Human Plasma Prodrug (%) ([3]; 0 min): 100.00%
Human Plasma Prodrug (%) ([3]; 10 min): >99%
Human Plasma Prodrug (%) ([3]; 30 min): >99%
Human Plasma Prodrug (%) ([3]; 60 min): 98.77%
Human Plasma Prodrug (%) ([3]; 120 min): 97.80%
Human Plasma Prodrug (%) ([3]; 240 min): 89.67%

COc1ccc([C@@]23CCC(OP(=O)(O)OCOC(=O)C(C)C)=C[C@@H]2N(C)CC3)cc1OC [Compound 408, [[(3aS,7aS)-3a-(3,4-dimethoxyphenyl)-1-methyl-3,4,5,7a-tetrahydro-2H-indol-6-yl]oxy-hydroxy-phosphoryl]oxymethyl 2-methylpropanoate]
half-life at 1 μM [1]: 220 min
hepatocyte CLint at 1 μM [1]: 6.4 µL/min/1e6 cells
Rat Plasma Prodrug (%) ([2]; 0 min): 100.0%
Rat Plasma Prodrug (%) ([2]; 10 min): 63.8%
Rat Plasma Prodrug (%) ([2]; 30 min): 29.2%
Rat Plasma Prodrug (%) ([2]; 60 min): 8.2%
Rat Plasma Prodrug (%) ([2]; 120 min): 0.8%
Rat Plasma Prodrug (%) ([2]; 240 min): 0.0%
Human Plasma Prodrug (%) ([3]; 0 min): 100.0%
Human Plasma Prodrug (%) ([3]; 10 min): 94.2%
Human Plasma Prodrug (%) ([3]; 30 min): 82.6%
Human Plasma Prodrug (%) ([3]; 60 min): 69.1%
Human Plasma Prodrug (%) ([3]; 120 min): 45.4%
Human Plasma Prodrug (%) ([3]; 240 min): 23.5%

COc1ccc([C@@]23CCC(OP4(=O)OCCCO4)=C[C@@H]2N(C)CC3)cc1OC [Compound 422, 2-(((3aS,7aS)-3a-(3,4-dimethoxyphenyl)-1-methyl-2,3,3a, 4,5,7a-hexahydro-1H-indol-6-yl)oxy)-1,3,2-dioxaphosphinane 2-oxide]
half-life at 1 μM [1]: 366 min
hepatocyte CLint at 1 μM [1]: 3.9 µL/min/1e6 cells
Rat Plasma Prodrug (%) ([2]; 0 min): 100.0%
Rat Plasma Prodrug (%) ([2]; 10 min): >99%
Rat Plasma Prodrug (%) ([2]; 30 min): >99%
Rat Plasma Prodrug (%) ([2]; 60 min): >99%
Rat Plasma Prodrug (%) ([2]; 120 min): 91.0%
Rat Plasma Prodrug (%) ([2]; 240 min): 76.8%
Human Plasma Prodrug (%) ([3]; 0 min): 100.0%
Human Plasma Prodrug (%) ([3]; 10 min): 89.4%
Human Plasma Prodrug (%) ([3]; 30 min): 73.1%
Human Plasma Prodrug (%) ([3]; 60 min): 62.4%
Human Plasma Prodrug (%) ([3]; 120 min): 39.2%
Human Plasma Prodrug (%) ([3]; 240 min): 19.6%

COc1ccc([C@@]23CCC(OP(=O)(O)OCOC(=O)C(C)(C)C)=C[C@@H]2N(C)CC3)cc1OC [Compound 409, [[(3aS,7aS)-3a-(3,4-dimethoxyphenyl)-1-methyl-3,4,5,7a-tetrahydro-2H-indol-6-yl]oxy-hydroxy-phosphoryl]oxymethyl 2,2-dimethylpropanoate]
half-life at 1 μM [1]: 1540 min
hepatocyte CLint at 1 μM [1]: 1.1 µL/min/1e6 cells
Rat Plasma Prodrug (%) ([2]; 0 min): 100.0%
Rat Plasma Prodrug (%) ([2]; 10 min): 89.9%
Rat Plasma Prodrug (%) ([2]; 30 min): 81.2%
Rat Plasma Prodrug (%) ([2]; 60 min): 71.0%
Rat Plasma Prodrug (%) ([2]; 120 min): 44.5%
Rat Plasma Prodrug (%) ([2]; 240 min): 22.7%
Human Plasma Prodrug (%) ([3]; 0 min): 100.0%
Human Plasma Prodrug (%) ([3]; 10 min): >99%
Human Plasma Prodrug (%) ([3]; 30 min): 95.2%
Human Plasma Prodrug (%) ([3]; 60 min): 93.0%
Human Plasma Prodrug (%) ([3]; 120 min): 87.3%
Human Plasma Prodrug (%) ([3]; 240 min): 75.8%

COc1ccc([C@@]23CCC(OP(=O)(OC(C)C)OC(C)C)=C[C@@H]2N(C)CC3)cc1OC [Compound 321, [(3aS,7aS)-3a-(3,4-dimethoxyphenyl)-1-methyl-3,4,5,7a-tetrahydro-2H-indol-6-yl]diisopropyl phosphate]
Mouse Plasma Metabolite (%) ([4]; 0 min): 11.9%
Mouse Plasma Metabolite (%) ([4]; 15 min): 28.4%
Mouse Plasma Metabolite (%) ([4]; 30 min): 38.3%
Mouse Plasma Metabolite (%) ([4]; 60 min): 51.1%
Mouse Plasma Metabolite (%) ([4]; 120 min): 53.7%
Mouse Plasma Metabolite (%) ([4]; 240 min): 55.2%
Mouse Plasma Prodrug (%) ([4]; 0 min): 100%
Mouse Plasma Prodrug (%) ([4]; 15 min): 77.3%
Mouse Plasma Prodrug (%) ([4]; 30 min): 74.5%
Mouse Plasma Prodrug (%) ([4]; 60 min): 58.4%
Mouse Plasma Prodrug (%) ([4]; 120 min): 43.1%
Mouse Plasma Prodrug (%) ([4]; 240 min): 31.7%
half-life at 1 μM [1]: 23 min
hepatocyte CLint at 1 μM [1]: 59.4 µL/min/1e6 cells
brain concentrations quantifiable up to (in vivo; 321 after 321 IV 2 mg/kg): ≤ 0.5 h
plasma concentrations quantifiable up to (in vivo; 321 after 321 IV 2 mg/kg): up to 2 h
Brain concentrations (mean) (in vivo; [6]): 99.58 ng/g
Plasma concentrations (mean) (in vivo; [6]): 304.66 ng/mL
Brain concentrations (mean) (in vivo; [7]): 37.11 ng/g
Plasma concentrations (mean) (in vivo; [7]): 104.69 ng/mL
Brain concentrations (mean) (in vivo; [8]): 7.89 ng/g
Plasma concentrations (mean) (in vivo; [8]): 26.16 ng/mL
Plasma concentrations (mean) (in vivo; 321 after 321 IV 2 mg/kg, 1 h): 8.57 ng/mL
Plasma concentrations (mean) (in vivo; 321 after 321 IV 2 mg/kg, 2 h, average of two values): 1.38^d ng/mL
AUClast (in vivo; 321 in brain after 321 IV 2 mg/kg): 27.57 ng·h/g
half-life (in vivo; [9]): 6.6 min
C0 (in vivo; [9]): 158 ng/mL
clearance (in vivo; male, C57BL/6, mouse, in vivo, 321 in brain after 321 IV 2 mg/kg, flagged NR (not reportable, very high vs liver blood flow)): 1150 mL/min/kg
Vd (in vivo; [9]): 10.3 L/kg
clearance (in vivo; [10]): 341 mL/min/kg
half-life (in vivo; [10]): 21.6 min
C0 (in vivo; [10]): 504 ng/mL
Vd (in vivo; [10]): 4.8 L/kg
Kp (in vivo; male, C57BL/6, mouse, in vivo, 321 after 321 IV 2 mg/kg, read-out: Brain-Kp): 0.28
AUC(0-t) (in vivo; [10]): 97.1 ng·h/mL
Rat Plasma Metabolite (%) ([2]; 0 min): 23.9%
Rat Plasma Metabolite (%) ([2]; 10 min): 53.7%
Rat Plasma Metabolite (%) ([2]; 30 min): 56.0%
Rat Plasma Metabolite (%) ([2]; 60 min): 59.1%
Rat Plasma Metabolite (%) ([2]; 120 min): 59.3%
Rat Plasma Metabolite (%) ([2]; 240 min): 56.7%
Rat Plasma Prodrug (%) ([2]; 0 min): 100.0%
Rat Plasma Prodrug (%) ([2]; 10 min): 74.0%
Rat Plasma Prodrug (%) ([2]; 30 min): 69.8%
Rat Plasma Prodrug (%) ([2]; 60 min): 69.2%
Rat Plasma Prodrug (%) ([2]; 120 min): 68.4%
Rat Plasma Prodrug (%) ([2]; 240 min): 65.7%
Human Plasma Metabolite (%) ([5]; 0 min): 0.08%
Human Plasma Metabolite (%) ([5]; 15 min): 0.29%
Human Plasma Metabolite (%) ([5]; 30 min): 0.40%
Human Plasma Metabolite (%) ([5]; 60 min): 0.49%
Human Plasma Metabolite (%) ([5]; 120 min): 0.67%
Human Plasma Metabolite (%) ([5]; 240 min): 0.61%
Human Plasma Prodrug (%) ([5]; 0 min): 100%
Human Plasma Prodrug (%) ([5]; 15 min): >99%
Human Plasma Prodrug (%) ([5]; 30 min): >99%
Human Plasma Prodrug (%) ([5]; 60 min): >99%
Human Plasma Prodrug (%) ([5]; 120 min): >99%
Human Plasma Prodrug (%) ([5]; 240 min): 78.2%
Human Plasma Metabolite (%) ([3]; 0 min): 0.40%
Human Plasma Metabolite (%) ([3]; 10 min): 0.50%
Human Plasma Metabolite (%) ([3]; 30 min): 0.57%
Human Plasma Metabolite (%) ([3]; 60 min): 0.65%
Human Plasma Metabolite (%) ([3]; 120 min): 0.82%
Human Plasma Metabolite (%) ([3]; 240 min): 0.96%
Human Plasma Prodrug (%) ([3]; 0 min): 100.0%
Human Plasma Prodrug (%) ([3]; 10 min): >99%
Human Plasma Prodrug (%) ([3]; 30 min): >99%
Human Plasma Prodrug (%) ([3]; 60 min): 98.1%
Human Plasma Prodrug (%) ([3]; 120 min): 94.5%
Human Plasma Prodrug (%) ([3]; 240 min): 96.3%
